# In a melting point compilation (Tetko et al.; mined from patent text by program, amines drawn as free bases though some values may be those of a salt):
row,SMILES,melting point
1,CC(Cl)c1nc2ccccc2c(=O)o1 (stereo unspecified),90 °C
2,Cc1ccc(C)c(C2C(=O)CC(C)(C)CC2=O)c1,168 to 170 °C
3,CCC1COC(=NO)C(=O)N1C (stereo unspecified),168 to 170 °C
4,COc1cc(Br)ccc1C(C)CC(=O)C(=O)Nc1ccc2c(c1)COC2=O (stereo unspecified),136 to 140 °C
5,Cc1c(Cl)cccc1NC(=O)Nc1ccc(-n2nc(C(F)(F)F)cc2C(F)(F)F)cc1,193 to 196 °C
6,CCC1(C(=O)O)c2ccccc2Oc2ccccc21,175 to 176 °C
7,CSc1c(F)ccc2onc(OCCNC(=O)OC(C)(C)C)c12,91 to 92 °C
8,CC(=O)N(C)c1ccc2c(c1)C(c1ccccc1F)=NCc1cnc(C)n1-2,217 to 223 °C
9,CNN(NC)C(=O)Nc1cccc2c1C(=O)c1c-2n[nH]c1-c1ccc(C)s1,> 280 °C
10,N=C(Nc1cccc(NC(=O)CNC(=O)OCc2ccccc2)c1)N1CCCC1,81 to 82 °C
11,FC(F)(F)c1ccc(-c2ncc(C#Cc3cc4ccccc4s3)s2)cc1,178 to 180 °C
12,O=C1C=C2CN(C(C(=O)C3CC3)c3ccccc3F)CCC2S1 (stereo unspecified),123 to 125 °C
13,CCCc1nc2c(ccc3[nH]c4cnc(C(=O)OC(C)C)c(C)c4c32)o1,223 to 224 °C
14,Cc1cc(-c2nc3cc(OC(C)C)cc(OC(C)C)c3c(=O)[nH]2)cc(C)c1OCCN1CCCC1,65 to 68 °C
15,CNC(=O)C(NC(=O)c1ccc(F)cc1C(F)(F)F)C(C[N+](=O)[O-])c1ccccc1 (stereo unspecified),223 °C
16,NC(=O)Nc1ccccc1CCc1n[nH]c2c1c(=O)n(-c1ccccc1)c1ncccc21,300 to 305 °C
17,CCOCc1nc2c(N)nc(C)c(C)c2n1CCCCNS(C)(=O)=O,165 to 167 °C
18,Cc1c(C)c2c(c(C)c1O)C(CO)C(C)(C)O2 (stereo unspecified),89 to 90 °C
19,COc1ccc(CCC(=O)c2cccc(O)c2)cc1OC,132 to 134 °C
20,Cn1nc(C(=O)O)nc1CCCC(O)=S,118 to 120 °C
21,NC(=O)c1c(Br)cc(Br)c(CC(=O)O)c1Br,245 °C
22,COc1cc2c(Nc3ccc(Cl)cc3F)ncnc2cc1OCCNC1CCCC1,171 to 173 °C
23,O=C(O)Cc1ccc2c(c1)CC(=O)c1ccccc1C2,163 to 165 °C
24,CN(CCO)S(=O)(=O)c1cc([N+](=O)[O-])c(Cl)s1,62 °C
25,COC(=O)COc1noc2ccc([N+](=O)[O-])cc12,72 to 73.5 °C
26,CC(C)CNS(=O)(=O)c1ccccc1CCOS(C)(=O)=O,106 to 108 °C

row,SMILES,melting point
1,CCCc1nc2c(nc1O)CCCC2,131 to 133 °C
2,O=C(Nc1ccc(F)c(C(F)(F)F)c1)Nc1ccc(OCc2ccccc2)cc1O,188 to 191 °C
3,CCOC(=O)c1cc(O)n(C)n1,151 to 153 °C
4,O=[N+]([O-])c1cc(C(F)(F)F)ccc1SCc1ccccc1,132 to 136 °C
5,O=C(O)CCOCC(I)=C(I)I,115 to 117 °C
6,CCOC(=O)CC(=O)c1cc(F)c(N2CCNCC2)nc1Nc1ccc(F)cc1F,121 to 123 °C
7,c1ccc(-c2cnc3c(c2)ncn3-c2cccc(-c3cccnc3)c2)cc1,179 to 180 °C
8,CC1=C(C)C(=O)C(CC[C@](C)(O)CO)=C(C)C1=O,109 to 112 °C
9,CC(C)c1ccc(OCC(=O)N2C(=O)OC[C@H]2Cc2ccccc2)cc1,104 to 105 °C
10,COc1ccccc1N1CCN(C(=O)[C@H](N)CC2CCCCC2)CC1,165 to 168 °C
11,NC1=Nc2ccc(Br)cc2C2CCCC12F (stereo unspecified),220 °C
12,COc1cc(C)c(C=CC=CC=C(C)C(=O)O)c(C)c1C,179 to 180 °C
13,CONc1nc(C#Cc2ccccc2)nc2c1ncn2[C@@H]1O[C@H](CO)[C@@H](O)[C@H]1O,175 to 177 °C
14,CC1(C)CC(=O)C(c2ccc(N)cc2Cl)C(=O)C1,218 to 219 °C
15,COCCO[C@@H]1c2ccc3c(nc(C)n3C)c2O[C@H](c2ccccc2)[C@H]1OC(=O)CN(C)C,175 °C
16,O=C(NN1CCN(C(=O)Cl)C1=O)OCc1ccccc1,102 to 105 °C
17,CC(=O)OC(Cn1cncn1)(CC(Cl)(Cl)Cl)c1ccc(Cl)cc1 (stereo unspecified),112 to 114 °C
18,Nc1nc2c(ncn2COCCCOC(=O)c2ccccc2)c(=O)[nH]1,198 to 201 °C
19,NNc1nc(F)c(C(F)(F)F)cc1Cl,104 to 106 °C
20,CCCCc1nc2c(n1Cc1ccc(-c3ccccc3S(N)(=O)=O)cc1)C(=NO)CCS2,> 200 °C
21,CC(C)c1cc(-c2ccccn2)c(-c2ccc(F)cc2)n1CCC=O,120 to 122 °C
22,COc1ccc(-c2cc(=O)n(CCCOc3ccccc3)nc2-c2ccc(OC)cc2)cc1,110 to 111 °C
23,COc1ccc2c(c1OC(C)=O)NC(O)C1CCCN1C2=O (stereo unspecified),144 to 146 °C
24,CCOC(=O)COc1ccc(CCl)cc1OC,64 to 66 °C
25,O=C(O)c1ccc(-c2csc(-c3ccccc3)n2)cc1,245 to 248 °C
